Test results published in BigSolDB 2.1.

O=C[C@H](O)[C@H](O)[C@H](O)CO
solubility (mole fraction)
Details | 283.15 K | 288.15 K | 293.15 K | 298.15 K | 303.15 K | 313.15 K | 323.15 K
in acetone | 0.00234 | – | 0.00302 | – | 0.00509 | 0.0077 | 0.0118
in acetonitrile | 0.00109 | – | 0.00144 | – | 0.0022 | 0.00357 | 0.00626
in dichloromethane | 0.000102 | 0.000257 | 0.000367 | 0.000402 | 0.000529 | – | –
in ethanol | 0.00798 | – | 0.0121 | – | 0.0213 | 0.0394 | 0.0675
in ethyl acetate | 0.000876 | – | 0.00107 | – | 0.00162 | 0.00257 | 0.0036
in isobutanol | 0.00334 | – | 0.00421 | – | 0.0063 | 0.0102 | 0.0156
in isopropanol | 0.00457 | – | 0.00703 | – | 0.0117 | 0.021 | 0.0426
in methanol | 0.0313 | 0.0457 | 0.0587 | 0.0771 | 0.108 | – | –
in n-butanol | 0.00388 | – | 0.00485 | – | 0.00814 | 0.0124 | 0.0201
in n-hexane | 3.77e-05 | – | 7.32e-05 | – | 0.000101 | 0.000174 | 0.000205
in n-propanol | 0.00515 | – | 0.00691 | – | 0.0112 | 0.0179 | 0.0305
in sec-butanol | 0.00484 | – | 0.00567 | – | 0.00894 | 0.0152 | 0.0242
